Patent US10077261B2, “Imidazolin-5-one derivative useful as FASN inhibitors for the treatment of cancer” (Janssen Pharmaceutica NV, priority 2012, dated 2018)

Legend:
[1] = tested on: A2780 ovarian cells; test: A2780 ovarian cell proliferation assay in lipid reduced medium, with palmitate (MTT); format: cell-based; conditions: Homo sapiens, A2780, 96 h; read-out: pIC50 A2780 Ovarian Cell, With Palmitate (converted)
In short: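 In this palmitate-supplemented format, compound dilutions (30 μM down to 0.01 μM) are added to cells in lipid-reduced serum with 25 μM palmitate, 0.2% fatty-acid-free BSA and 0.25% ethanol. After four days (96 h) MTT absorbance at 544 nm is recorded and fitted by minimum sum of squares.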

[2] = tested on: A2780 ovarian cells; test: A2780 ovarian cell proliferation assay in lipid reduced medium, without palmitate (MTT); format: cell-based; conditions: Homo sapiens, A2780, 96 h; read-out: pIC50 A2780 Ovarian Cell, Without Palmitate (converted)
[3] = tested on: LNCaP-Vancouver prostate cells; test: In vitro LNCaP Vancouver prostate cell proliferation assay in lipid reduced medium; format: cell-based; conditions: read-out: pIC50 LNCaP_Vancouver prostate cell (converted)
[4] = target: Fatty Acid Synthase Keto-reductase Domain (FASN KR) (Homo sapiens, UniProt P49327); test: Fatty Acid Synthase keto-reductase domain (FASN KR) inhibition, NADPH oxidation at 340 nm
Sequence of Fatty Acid Synthase Keto-reductase Domain (FASN KR) (P49327 whole entry, the tested form may be a part): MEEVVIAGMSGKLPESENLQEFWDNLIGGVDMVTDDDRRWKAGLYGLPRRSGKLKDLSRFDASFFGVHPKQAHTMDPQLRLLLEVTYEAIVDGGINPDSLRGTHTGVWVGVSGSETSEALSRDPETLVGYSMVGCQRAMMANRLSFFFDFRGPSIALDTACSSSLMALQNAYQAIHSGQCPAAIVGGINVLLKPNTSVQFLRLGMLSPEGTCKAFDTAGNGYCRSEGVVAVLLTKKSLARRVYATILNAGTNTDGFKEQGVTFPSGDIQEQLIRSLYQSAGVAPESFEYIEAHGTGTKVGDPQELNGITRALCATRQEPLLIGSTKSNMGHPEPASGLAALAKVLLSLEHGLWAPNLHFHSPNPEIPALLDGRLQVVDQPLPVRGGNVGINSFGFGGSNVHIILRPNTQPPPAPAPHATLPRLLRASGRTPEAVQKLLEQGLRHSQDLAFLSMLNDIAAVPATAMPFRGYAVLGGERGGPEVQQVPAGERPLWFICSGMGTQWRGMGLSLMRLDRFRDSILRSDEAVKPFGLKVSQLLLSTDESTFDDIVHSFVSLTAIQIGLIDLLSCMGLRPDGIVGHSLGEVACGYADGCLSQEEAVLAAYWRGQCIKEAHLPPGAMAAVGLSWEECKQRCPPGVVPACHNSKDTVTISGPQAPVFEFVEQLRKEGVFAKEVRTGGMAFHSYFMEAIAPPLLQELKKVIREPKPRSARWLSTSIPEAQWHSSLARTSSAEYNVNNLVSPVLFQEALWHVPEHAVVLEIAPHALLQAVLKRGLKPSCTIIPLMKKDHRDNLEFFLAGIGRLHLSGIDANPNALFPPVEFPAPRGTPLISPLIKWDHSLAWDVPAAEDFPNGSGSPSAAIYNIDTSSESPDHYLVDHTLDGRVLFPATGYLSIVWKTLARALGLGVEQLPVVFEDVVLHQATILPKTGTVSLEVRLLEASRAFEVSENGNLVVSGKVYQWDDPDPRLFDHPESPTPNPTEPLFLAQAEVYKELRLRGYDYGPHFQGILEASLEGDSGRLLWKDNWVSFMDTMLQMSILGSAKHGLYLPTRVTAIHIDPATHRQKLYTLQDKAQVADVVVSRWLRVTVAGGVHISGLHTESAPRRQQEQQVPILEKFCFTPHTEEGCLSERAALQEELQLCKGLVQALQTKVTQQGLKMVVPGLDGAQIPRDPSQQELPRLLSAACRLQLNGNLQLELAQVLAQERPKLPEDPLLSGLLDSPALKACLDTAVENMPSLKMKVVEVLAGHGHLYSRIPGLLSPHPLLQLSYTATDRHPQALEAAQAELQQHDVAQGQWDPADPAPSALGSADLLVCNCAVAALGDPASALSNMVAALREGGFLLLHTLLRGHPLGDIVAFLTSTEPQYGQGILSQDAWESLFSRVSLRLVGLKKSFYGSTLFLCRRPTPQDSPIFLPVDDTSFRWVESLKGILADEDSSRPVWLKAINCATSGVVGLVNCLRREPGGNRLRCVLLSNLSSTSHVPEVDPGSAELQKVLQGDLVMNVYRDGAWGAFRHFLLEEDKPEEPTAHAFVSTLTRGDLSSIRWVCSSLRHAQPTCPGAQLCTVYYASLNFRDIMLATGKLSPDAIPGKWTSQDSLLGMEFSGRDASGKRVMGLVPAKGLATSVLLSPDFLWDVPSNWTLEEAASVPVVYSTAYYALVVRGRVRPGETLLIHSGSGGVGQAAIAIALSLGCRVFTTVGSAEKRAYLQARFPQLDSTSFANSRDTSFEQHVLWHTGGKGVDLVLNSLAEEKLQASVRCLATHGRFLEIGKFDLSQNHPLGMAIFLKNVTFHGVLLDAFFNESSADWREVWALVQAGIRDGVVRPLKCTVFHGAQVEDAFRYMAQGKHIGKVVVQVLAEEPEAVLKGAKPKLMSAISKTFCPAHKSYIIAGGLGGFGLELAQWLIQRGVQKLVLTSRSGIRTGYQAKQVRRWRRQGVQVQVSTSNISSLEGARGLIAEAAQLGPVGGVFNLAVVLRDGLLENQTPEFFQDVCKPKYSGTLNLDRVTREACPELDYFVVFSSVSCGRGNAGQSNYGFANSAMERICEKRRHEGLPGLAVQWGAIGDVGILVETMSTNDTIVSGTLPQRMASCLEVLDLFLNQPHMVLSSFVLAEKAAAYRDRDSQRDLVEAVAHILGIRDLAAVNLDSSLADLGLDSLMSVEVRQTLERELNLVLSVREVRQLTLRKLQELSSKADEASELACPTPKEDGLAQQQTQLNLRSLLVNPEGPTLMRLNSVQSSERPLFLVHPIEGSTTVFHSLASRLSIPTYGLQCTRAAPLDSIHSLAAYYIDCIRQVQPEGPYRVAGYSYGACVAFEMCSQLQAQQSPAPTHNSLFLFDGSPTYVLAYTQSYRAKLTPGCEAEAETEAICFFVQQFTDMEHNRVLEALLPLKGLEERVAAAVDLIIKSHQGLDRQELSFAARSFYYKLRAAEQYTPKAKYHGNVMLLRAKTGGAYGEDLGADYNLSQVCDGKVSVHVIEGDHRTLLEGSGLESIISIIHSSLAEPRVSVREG
Method: After 20 minutes incubation at room temperature the plate was measured again (T2).
The decrease in absorbance was calculated as (Absorbance before incubation T1)−(Absorbance following incubation T2).
A plot of Controlmin versus test compound concentration was fitted to a 4-parameter logistic curve using a non-linear least squares regression method.

[5] = target: T1, hFASN enzyme (full length) (Homo sapiens, UniProt P49327); test: Fatty Acid Synthase (FASN) inhibition scintillation proximity assay; format: biochemical; conditions: for inhibition at 10 µM: read-out: Human FASN % inhibition @ 10 μM, 10 μM test compound; for IC50: read-out: Human FASN pIC50 (converted)
T1 construct: 10 μL hFASN enzyme (full length, 300 ng, purified in house); made in house
T1 sequence (P49327 whole entry): as the sequence (P49327 whole entry, the tested form may be a part) above
In short: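 Scintillation proximity format: in-house full-length enzyme, 300 ng per well, pH 7.5 phosphate/DTT buffer, ³H-acetyl-CoA and malonyl-CoA. Emission counted on LEADseeker at 610 nm at least 24 h after stopping.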

[6] = tested on: PC-3M-Luc-C6 prostate cells; test: In vitro PC-3M-Luc-C6 prostate cell proliferation assay in lipid reduced medium; format: cell-based; conditions: 96 h, read-out: pIC50 PC-3M-Luc-C6 prostate cell (converted)

SMILES | IC50 [1] [nM] | IC50 [2] [nM] | IC50 [3] [nM] | IC50 [4] [nM] | inhibition at 10 µM [5] [%] | IC50 [5] [nM] | IC50 [6] [nM]
Cc1cc(-c2ccc3c(cnn3C)c2)ccc1C1=NC2(CC2)C(=O)N1CC1CN(C(=O)C2(C)CCC2)C1 [compound 208, 5-(2-methyl-4-(1-methyl-1H-indazol-5-yl)phenyl)-6-((1-(1-methylcyclobutanecarbonyl)azetidin-3-yl)methyl)-4,6-diazaspiro[2.4]hept-4-en-7-one] | 6030 | ~72.4 | 117 | 105 | 99 | 64.6 | 43.7
Nc1cccc(-c2ccc(C3=NC4(CC4)C(=O)N3C[C@@H]3CCN(C(=O)C4CC4)C3)cc2)n1 [compound 400, 5-[4-(6-Aminopyridin-2-yl)phenyl]-6-{[(3R)-1-(cyclopropylcarbonyl)pyrrolidin-3-yl]methyl}-4,6-diazaspiro[2.4]hept-4-en-7-one] | > 6170 | 229 | 1200 | 479 | 101 | 195 | 214
Cc1cc2cc(-c3ccc(C4=NC5(CC5)C(=O)N4CC4CN(C(=O)C5CC5)C4)c(F)c3)ccc2o1 [compound 353, 6-((1-(cyclopropanecarbonyl)azetidin-3-yl)methyl)-5-(2-fluoro-4-(2-methylbenzofuran-5-yl)phenyl)-4,6-diazaspiro[2.4]hept-4-en-7-one] | 6030 | 245 | 1150 | 107 | 101 | 55 | 437
Cc1cc(-c2ccc(-c3cnn(C4CC4)c3)cc2)ccc1C1=NC2(CC2)C(=O)N1CC1CN(C(=O)C2CC2)C1 [compound 326, 6-((1-(cyclopropanecarbonyl)azetidin-3-yl)methyl)-5-(4′-(1-cyclopropyl-1H-pyrazol-4-yl)-3-methyl-[1,1′-biphenyl]-4-yl)-4,6-diazaspiro[2.4]hept-4-en-7-one] | 9120 | ~12 | 170 | 407 | 103 | 39.8 | 49
O=C(C1CC1)N1CC[C@@H](CN2C(=O)C3(CC3)N=C2c2ccc(-c3ccc4[nH]ccc4c3)c(F)c2)C1 [compound 234, (R)-6-((1-(cyclopropanecarbonyl)pyrrolidin-3-yl)methyl)-5-(3-fluoro-4-(1H-indol-5-yl)phenyl)-4,6-diazaspiro[2.4]hept-4-en-7-one] | > 10000 | ~28.8 | 245 | 51.3 | 108 | 20.9 | 23.4
Cc1cc(-c2ccc3cc(C#N)ccc3c2)ccc1C1=NC2(CC2)C(=O)N1CC1CN(C(=O)C2(O)CC2)C1 [compound 272, 6-(4-(6-((1-(1-hydroxycyclopropanecarbonyl)azetidin-3-yl)methyl)-7-oxo-4,6-diazaspiro[2.4]hept-4-en-5-yl)-3-methylphenyl)-2-naphthonitrile] | > 10000 | ~7.24 | 49 | ~38.9 | 105 | 18.6 | 10.7
CC1(C(=O)N2CC(CN3C(=O)C4(CC4)N=C3c3ccc(-c4ccc5cc(C#N)ccc5c4)cc3F)C2)CC1 [compound 385, 6-(3-fluoro-4-(6-((1-(1-methylcyclopropanecarbonyl)azetidin-3-yl)methyl)-7-oxo-4,6-diazaspiro[2.4]hept-4-en-5-yl)phenyl)-2-naphthonitrile] | ~2570 | ~3.63 | 18.6 | 43.7 | 103 | 22.9 | ~4.79
O=C(C1CC1)N1CC[C@@H](CN2C(=O)C3(CC3)N=C2c2ccc(-c3ccc4[nH]ncc4c3)c(F)c2)C1 [compound 414, 6-{[(3R)-1-(Cyclopropylcarbonyl)pyrrolidin-3-yl]methyl}-5-[3-fluoro-4-(1H-indazol-5-yl)phenyl]-4,6-diazaspiro[2.4]hept-4-en-7-one] | > 10000 | ~200 | 1150 | 295 | 101 | 135 | 178
Cc1cc(-c2ccc3oc(C)c(C)c3c2)ccc1C1=NC2(CC2)C(=O)N1C[C@@H]1CCN(C(=O)C2CC2)C1 [compound 282, (R)-6-((1-(cyclopropanecarbonyl)pyrrolidin-3-yl)methyl)-5-(4-(2,3-dimethylbenzofuran-5-yl)-2-methylphenyl)-4,6-diazaspiro[2.4]hept-4-en-7-one] | > 10000 | ~2090 | ~2140 | 224 | 106 | 87.1 | ~1700
O=C(C1CC1)N1CC[C@@H](CN2C(=O)C3(CC3)N=C2c2ccc(-c3ccc4[nH]cc(CCO)c4c3)cc2)C1 [compound 217, (R)-6-((1-(cyclopropanecarbonyl)pyrrolidin-3-yl)methyl)-5-(4-(3-(2-hydroxyethyl)-1H-indol-5-yl)phenyl)-4,6-diazaspiro[2.4]hept-4-en-7-one] | > 10000 | 30.2 | 178 | 49 | 103 | 28.8 | 50.1

More lines, now with the values ahead:

IC50 [1] [nM] | IC50 [2] [nM] | IC50 [3] [nM] | IC50 [4] [nM] | inhibition at 10 µM [5] [%] | IC50 [5] [nM] | IC50 [6] [nM] | SMILES
> 10000 | 891 | 4570 | 3890 | 95 | 479 | 1260 | O=C(N1CCCC1)N1CC(CN2C(=O)C3(CCOCC3)N=C2c2ccc(-c3ccc4cccnc4c3)cc2)C1 [compound 701, 3-{[1-(Pyrrolidin-1-ylcarbonyl)azetidin-3-yl]methyl}-2-(4-quinolin-7-ylphenyl)-8-oxa-1,3-diazaspiro[4.5]dec-1-en-4-one]
> 10000 | 129 | 1020 | 1350 | 97 | 219 | 355 | COc1cccc2cc(-c3ccc(C4=NC5(CC5)C(=O)N4CC4CN(C(=O)C5CC5)C4)c(F)c3)ccc12 [compound 635, 6-{[1-(Cyclopropylcarbonyl)azetidin-3-yl]methyl}-5-[2-fluoro-4-(5-methoxynaphthalen-2-yl)phenyl]-4,6-diazaspiro[2.4]hept-4-en-7-one]
> 10000 | ~427 | ~2510 | 1170 | 95 | 141 | ~603 | O=C1Cc2ccc(-c3ccc(C4=NC5(CC5)C(=O)N4C[C@@H]4CCN(C(=O)C5CC5)C4)cc3)cc2N1 [compound 461, 6-[4-(6-{[(3R)-1-(Cyclopropylcvarbonyl)pyrrolidin-3-yl]methyl}-7-oxo-4,6-diazaspiro[2.4]hept-4-en-5-yl)phenyl]-1,3-dihydro-2H-indol-2-one]
> 6170 | 1510 | 2040 | 447 | 98 | 141 | 871 | Cc1cc2cc(-c3ccc(C4=NC5(CC5)C(=O)N4CC4CN(C(=O)C5CC5)C4)cc3)ccc2s1 [compound 432, 6-{[1-(Cyclopropylcarbonyl)azetidin-3-yl]methyl}-5-[4-(2-methyl-1-benzothiophen-5-yl)phenyl]-4,6-diazaspiro[2.4]hept-4-en-7-one]
> 10000 | 501 | 3240 | 1050 | 98 | 324 | ~2340 | O=C(Nc1cccc(-c2ccc(C3=NC4(CC4)C(=O)N3CC3CN(C(=O)C4CC4)C3)c(F)c2)c1)C1CC1 [compound 615, N-[4′-(6-{[1-(Cyclopropylcarbonyl)azetidin-3-yl]methyl}-7-oxo-4,6-diazaspiro[2.4]hept-4-en-5-yl)-3′-fluorobiphenyl-3-yl]cyclopropanecarboxamide]
1620 | 52.5 | 776 | 724 | 98 | 204 | 141 | CC(C)Cn1cc(-c2ccc(-c3ccc(C4=NC5(CC5)C(=O)N4CC4CN(C(=O)C5CC5)C4)cc3)cc2)cn1 [compound 544, 6-{[1-(Cyclopropylcarbonyl)azetidin-3-yl]methyl}-5-{4′-[1-(2-methylpropyl)-1H-pyrazol-4-yl]biphenyl-4-yl}-4,6-diazaspiro[2.4]hept-4-en-7-one]
> 10000 | 813 | 3310 | 372 | 93 | 166 | 661 | N#Cc1cc2cc(-c3ccc(C4=NC5(CC5)C(=O)N4CC4CN(C(=O)C5CC5)C4)cc3)ccc2o1 [compound 475, 5-[4-(6-{[1-(Cyclopropylcarbonyl)azetidin-3-yl]methyl}-7-oxo-4,6-diazaspiro[2.4]hept-4-en-5-yl)phenyl]-1-benzofuran-2-carbonitrile]
